Assay results from patent US20200331882A1, “COMPOUND FOR SIMULTANEOUSLY INHIBITING LSD1 AND HDAC TARGETS AND APPLICATION THEREOF” (PEKING UNIVERSITY SHENZHEN GRADUATE SCHOOL, priority 2018, published 2020).

Experiments:
[1] = tested on: human breast cancer cell line MDA-MB-231; assay: MTT tumor cell proliferation; assay type: cell-based; settings: Homo sapiens, 72 h
From the text: (§1) MTT colorimetric method was used to detect the inhibitory activity of a series of compounds (i.e. ZZY-001 to ZZY-016, a total of 16 kinds) of the embodiment of the present invention on the proliferation of tumor cells in vitro. The full name of MTT is 3-(4,5-dimethyl-2-thiazolyl)-2,5-diphenyl-2-H-tetrazolium romide, which is a yellow dye also known as thiazolyl blue. […] DMSO can dissolve Formazan deposited in cells and the absorbance value can be measured with a enzyme marker at a wavelength of 490 nm. In a certain range of cell number, the production of Formazan is proportional to the number of cells, so the number of living cells can be inferred according to the measured OD value.
In the experiments of this embodiment, the selected cell lines are human breast cancer cell line MDA-MB-231 and BT-474, human colon adenocarcinoma cell HCT116, mouse colon cancer cell CT26.WT, mouse breast cancer cell 4T1. During the test, the cells in logarithmic phase and in good condition were digested with 0.25% trypsin digestion solution to make the adherent cells fall off, and the cell suspension (suspension cells without trypsin digestion) was made by counting 2-4×10^4 cells/ml. The cell suspension was inoculated on a 96-well plate at 100 μl/well and cultured in a constant temperature CO2 incubator for 24 h. Then the tested drugs were added, 100 μl/well, and cultured for 72 h. MTT was added to a 96-well plate, 20 μl/well, and reacted for 4 h in the incubator. Absorb the supernatant, add DMSO, 150 μl/well and shake for 10 min on the plate shaker. The optical density (OD value) of each well was measured by enzyme marker at the wavelength of 490 nm. […]

[2] = tested on: human breast cancer cell line BT-474; assay: MTT tumor cell proliferation; assay type: cell-based; settings: Homo sapiens, 72 h
From the text: as §1
(§2) The cell suspension was inoculated on a 96-well plate at 100 μl/well and cultured in a constant temperature CO2 incubator for 24 h. Then the tested drugs were added, 100 μl/well, and cultured for 72 h. MTT was added to a 96-well plate, 20 μl/well, and reacted for 4 h in the incubator. Absorb the supernatant, add DMSO, 150 μl/well and shake for 10 min on the plate shaker. The optical density (OD value) of each well was measured by enzyme marker at the wavelength of 490 nm.

[3] = tested on: mouse colon cancer cell CT26.WT; assay: MTT tumor cell proliferation; assay type: cell-based; settings: Mus musculus, 72 h
From the text: as §1, §2

[4] = tested on: mouse breast cancer cell 4T1; assay: MTT tumor cell proliferation; assay type: cell-based; settings: Mus musculus, 72 h
From the text: as §1, §2

[5] = tested on: human colon adenocarcinoma cell HCT116; assay: MTT tumor cell proliferation; assay type: cell-based; settings: Homo sapiens, HCT-116, 72 h
From the text: as §1, §2

[6] = target: T1, recombinant human LSD1 protein (Homo sapiens, UniProt O60341); assay: In vitro LSD1 inhibitory activity, LSD1-HRP coupling reaction (Amplex Red); assay type: biochemical; settings: LSD1 enzyme activity in vitro; 30 min preincubation; H3K4Me2 peptide
T1 construct: made in house; host or cells: E. coli
From the text: LSD1 activity was detected by using LSD1-HRP coupling reaction. […] During the reduction of H2O2 to H2O, Amplex Red acts as an electron donor and oxidizes to Resorufin for detection of fluorescence. […] Ampliflu™ Red, peroxidase, from horseradish required for the experiment was purchased from SIGMA; H3K4Me2 substrate peptide was purchased from GL Biochemical (Shanghai) Co., Ltd.

IC50 [1]: 0.836 µM | IC50 [2]: 1.86 µM | IC50 [3]: 8.76 µM | IC50 [4]: 2.38 µM | IC50 [5]: 0.265 µM | IC50 [6]: 0.44 µM
Structure (SMILES): Cc1ccc(C(=O)Nc2cc(N3CCNCC3)ccc2-c2ccc(/C=C/C(=O)NO)cc2C)cc1.Cl [ZZY-003]
